What is called pIC50 is the negative decadic logarithm of the IC50, by convention in mol/L.

pIC50: −log10 of the molar value.

The assay has as its target h-TRPA1 (Homo sapiens (Human), UniProt O75762). Briefly: Dose response calcium flux (FLIPR) assay, ChanTest hTRPA1-CHO stably transfected cell line, cinnamaldehyde agonist. Type of assay: cell-based. The conditions noted are these: for inhibition at 3 µM / inhibition at 30 µM / inhibition at 10 µM / inhibition at 1 µM: % inhibition of the inhibitor control, read-out: Inhibition % @ concentration; for pIC50: CHO-K1 Tet-On TRPA1 cells, calcium flux, 100 uM cinnamaldehyde. The method, then: IC50 Determinations of Exemplified Compounds
Dose Response Assay: ChanTest hTRPA1-CHO Stably Transfected Cell Line
To induce expression, tetracycline was added to blasticidin/zeocin-free media at a final concentration of 1 ug/ml. Experiments were run at 24 hours post induction.
Plating Conditions CHOK1/TRPA1 Cells:
Harvested cells with 0.025% trypsin/EDTA.
Resuspended cells in growth media without selection antibiotics.
Measured cell density and diluted to 2.4×10^5 cells/ml in media containing 1 ug/ml Doxycycline Plate 25 ul/well into 384 well black/clear tissue culture-treated plates.
Incubated overnight at 37° C.
Replacement Buffer: Hank's Balanced Salt Solution, 20 mM HEPES along with 0.005% BSA and 2× Probenecid
Dye Loading Buffer: Cal-3 NW Calcium dye was prepared by dissolving the contents of one vial with 500 ml Hank's Balanced Salt Solution containing 20 mM HEPES. • Control compounds for CHOK1/TRPA1 cells:
AP-18, stock 10 mM, prepare 3.5× compound dilution in a Compound Buffer (HBSS/20 mM HEPES/0.005% BSA)—final concentration 10 uM.
Working solution 4.5× (final 100 uM in Compound Buffer: HBSS/20 mM HEPES/0.005% BSA)
Compounds dilutions were prepared from 5 or 10 mM stock (100% DMSO):
Compounds were tested at either 20 μM three folds dilution 11 steps out or 30 μM two folds dilution 11 steps out.
3 μl of diluted compound were transferred into Weidmann 384-well plate in duplicates side-by-side.
Compound plates were resuspended with 100 ul of HBSS/20 mM HEPES/0.005% BSA buffer (Compound Buffer):
Growth media was removed from the cell plates (20 ul) and 20 ul of the Replacement Buffer was added followed by addition of 25 ul of diluted dye. All three steps were performed using a Plate Washer BioTek 407. The plates were then incubated for 30′ at RT.
After incubation, both the cell and compound plates were brought to the FLIPR and 20 ul of the diluted compounds/antagonist/bk were transferred to the cell plates by the FLIPR. Plates were then incubated for 30′ at room temperature. After 30′ incubation, plates were returned to the FLIPR and 20 ul of 4.5× Cinnamaldehyde was added to the cell plates. During the compound addition as well as agonist addition, fluorescence readings were taken simultaneously from all 384 wells of the cell plate every 1.5 seconds. Five readings were taken to establish a stable baseline, then 20 ul of sample was rapidly (30 ul/sec) and simultaneously added to each well of the cell plate. The fluorescence was continuously monitored before, during and after sample/agonist addition for a total elapsed time of 100 seconds (compound addition) and 120 seconds (agonist addition). Responses (increase in peak fluorescence) in each well following agonist addition was determined. The initial fluorescence reading from each well, prior to ligand stimulation, was used a zero baseline value for the data from that well.

Sequence of h-TRPA1 (O75762 whole entry): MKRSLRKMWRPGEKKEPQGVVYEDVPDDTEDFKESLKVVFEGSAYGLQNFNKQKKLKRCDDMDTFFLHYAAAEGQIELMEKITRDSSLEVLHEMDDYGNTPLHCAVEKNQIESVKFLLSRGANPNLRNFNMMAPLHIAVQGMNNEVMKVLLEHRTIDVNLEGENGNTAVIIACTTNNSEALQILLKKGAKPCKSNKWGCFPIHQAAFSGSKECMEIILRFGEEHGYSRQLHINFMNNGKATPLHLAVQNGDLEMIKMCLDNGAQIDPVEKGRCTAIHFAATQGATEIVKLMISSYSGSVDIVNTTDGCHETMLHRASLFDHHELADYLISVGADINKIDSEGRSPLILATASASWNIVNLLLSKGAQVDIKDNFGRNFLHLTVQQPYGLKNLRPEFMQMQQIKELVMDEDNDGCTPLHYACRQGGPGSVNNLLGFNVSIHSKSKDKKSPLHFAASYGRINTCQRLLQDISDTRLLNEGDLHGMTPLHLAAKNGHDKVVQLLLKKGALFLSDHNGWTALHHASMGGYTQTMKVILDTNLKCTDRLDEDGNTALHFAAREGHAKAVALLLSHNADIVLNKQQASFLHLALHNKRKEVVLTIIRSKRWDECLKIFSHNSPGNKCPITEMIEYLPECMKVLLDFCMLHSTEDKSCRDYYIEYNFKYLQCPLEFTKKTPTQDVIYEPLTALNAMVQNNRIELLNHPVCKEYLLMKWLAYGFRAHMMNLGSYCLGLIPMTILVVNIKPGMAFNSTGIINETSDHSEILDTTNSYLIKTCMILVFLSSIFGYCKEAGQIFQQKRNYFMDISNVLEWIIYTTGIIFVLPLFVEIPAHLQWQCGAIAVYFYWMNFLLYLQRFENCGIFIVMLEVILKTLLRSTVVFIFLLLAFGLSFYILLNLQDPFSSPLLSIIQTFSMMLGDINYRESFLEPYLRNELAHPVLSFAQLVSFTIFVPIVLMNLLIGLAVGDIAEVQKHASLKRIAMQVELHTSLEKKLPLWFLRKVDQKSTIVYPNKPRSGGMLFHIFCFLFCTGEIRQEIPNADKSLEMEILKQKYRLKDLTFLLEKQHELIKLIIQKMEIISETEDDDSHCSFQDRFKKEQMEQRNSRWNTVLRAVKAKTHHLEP

Regarding `CC(C)Nc1c(-c2cccc(Cl)c2)nc2ccc(C(F)(F)F)cn12` [Example 16, [2-(3-Chloro-phenyl)-6-trifluoromethyl-imidazo[1,2-a]pyridin-3-yl]-isopropyl-amine], the inhibition at 3 µM amounted to 100% and the pIC50 is 6.84.
Consider `CC(C)(C)Nc1c(-c2cccc(Cl)c2)nc2cc(C(F)(F)F)ccn12` [Example 13, tert-Butyl-[2-(3-chloro-phenyl)-7-trifluoromethyl-imidazo[1,2-a]pyridin-3-yl]-amine], for which the inhibition at 30 µM was found to be 100% and the pIC50 was 5.95.
As to `CC(C)(C)Nc1c(-c2cccc(Cl)c2)nc2c(Br)cc(Cl)cn12` [Example 8, [8-Bromo-6-chloro-2-(3-chloro-phenyl)-imidazo[1,2-a]pyridin-3-yl]-tert-butyl-amine], the inhibition at 3 µM amounted to 100% and the pIC50 was 5.96.
In the case of `CC(C)(C)Nc1c(-c2cccc(Br)c2)nc2ccc(C(F)(F)F)cn12` [Example 17, [2-(3-Bromo-phenyl)-6-trifluoromethyl-imidazo[1,2-a]pyridin-3-yl]-tert-butyl-amine], the inhibition at 10 µM was 100% and the negative-log IC50 (pIC50) is 6.58.
For `CC(C)(C)Nc1c(-c2cccc(F)c2)nc2ccc(C(F)(F)F)cn12` [Example 4, tert-Butyl-[2-(3-fluoro-phenyl)-6-trifluoromethyl-imidazo[1,2-a]pyridin-3-yl]-amine], the inhibition at 3 µM turned out to be 100% and the pIC50 is 5.88.
For `CC(C)(C)Nc1c(-c2cccc(C#N)c2)nc2ccc(F)cn12` [Example 18, 3-(3-tert-Butylamino-6-fluoro-imidazo[1,2-a]pyridin-2-yl)-benzonitrile], the inhibition at 30 µM was 80.9% and the negative logarithm of the IC50 (pIC50) is 4.69.
For `C#Cc1cccc(-c2nc3ccc(C(F)(F)F)cn3c2NC(C)C)c1` [Example 15, [2-(3-Ethynyl-phenyl)-6-trifluoromethyl-imidazo[1,2-a]pyridin-3-yl]-isopropyl-amine], the inhibition at 10 µM is 100% and the pIC50 is 7.09.
`CCNc1c(-c2cccc(Cl)c2)nc2ccc(C(F)(F)F)cn12` [Example 14, [2-(3-Chloro-phenyl)-6-trifluoromethyl-imidazo[1,2-a]pyridin-3-yl]-ethyl-amine]: the inhibition at 30 µM is 100% and the pIC50 was 5.68.
In the case of `Cc1cc(Br)cn2c(NC(C)(C)C)c(-c3cccc(Cl)c3)nc12` [Example 10, [6-Bromo-2-(3-chloro-phenyl)-8-methyl-imidazo[1,2-a]pyridin-3-yl]-tert-butyl-amine], the inhibition at 10 µM stood at 100% and the negative logarithm of the IC50 (pIC50) was 6.66.
As for `CC(C)(C)Nc1c(-c2cc(Cl)cc(Cl)c2)nc2ccc(C(F)(F)F)cn12` [Example 11, tert-Butyl-[2-(3,5-dichloro-phenyl)-6-trifluoromethyl-imidazo[1,2-a]pyridin-3-yl]-amine], the inhibition at 30 µM came to 98% and the pIC50 was 5.88.
Consider `Cc1cc2nc(-c3cccc(Cl)c3)c(NC(C)(C)C)n2cc1Br` [Example 9, [6-Bromo-2-(3-chloro-phenyl)-7-methyl-imidazo[1,2-a]pyridin-3-yl]-tert-butyl-amine], for which the inhibition at 30 µM turned out to be 100% and the pIC50 is 6.64.
`CC(C)Nc1c(-c2cccc(Cl)c2)nc2ccc(Cl)cn12` [Example 2, [6-Chloro-2-(3-chloro-phenyl)-imidazo[1,2-a]pyridin-3-yl]-isopropyl-amine]: the inhibition at 30 µM was 100% and the pIC50 is 6.71.
Consider `Clc1cccc(-c2nc3ccc(Cl)cn3c2NC2CC2)c1` [Example 7, [6-Chloro-2-(3-chloro-phenyl)-imidazo[1,2-a]pyridin-3-yl]-cyclopropyl-amine], for which the inhibition at 10 µM came out at 100% and the pIC50 is 5.80.
Turning to `CC(C)(C)Nc1c(-c2cccc(C#N)c2)nc2ccc(Cl)cn12` [Example 6, 3-(3-tert-Butylamino-6-chloro-imidazo[1,2-a]pyridin-2-yl)-benzonitrile], the inhibition at 10 µM worked out at 90% and the pIC50 was 5.67.
As for `COC(=O)CNc1c(-c2cccc(F)c2)nc2ccc(F)cn12` [Example 3, [6-Fluoro-2-(3-fluoro-phenyl)-imidazo[1,2-a]pyridin-3-ylamino]-acetic acid methyl ester], the inhibition at 30 µM was 74.3% and the pIC50 was 5.48.
On to `C#Cc1cccc(-c2nc3ccc(C(F)(F)F)cn3c2NC(C)(C)C)c1` [Example 12, tert-Butyl-[2-(3-ethynyl-phenyl)-6-trifluoromethyl-imidazo[1,2-a]pyridin-3-yl]-amine], for which the inhibition at 1 µM turned out to be 100% and the pIC50 was 6.96.
Take `CC(C)Nc1c(-c2cccc(Cl)c2)nc2ccc(Br)cn12` [Example 1]: the inhibition at 1 µM came out at 100% and the pIC50 is 6.88.
With `CC(C)(C)Nc1c(-c2cccc(C#N)c2)nc2ccc(C(F)(F)F)cn12` [Example 5, 3-(3-tert-Butylamino-6-trifluoromethyl-imidazo[1,2-a]pyridin-2-yl)-benzonitrile], the inhibition at 30 µM amounted to 100% and the pIC50 was 6.07.
